According to patent US20250302840A1, “COMBINATION THERAPIES” (Janssen Pharmaceutica NV, priority 2021, published 2025):
Structures can show the parent of a compound that is named as a salt. Marks after values point to notes of the source that are not given here.

Legend:
[1] = test system: iCell® Cardiomyocytes2; assay: Ca2+-fluorescence assay in human pluripotent stem cell-derived cardiomyocytes (CTCM human); format: cell-based; design: key to Hazard scoring, Color @ 0.1 μM / Hazard scoring, Color @ 0.2 μM / Hazard scoring, Color @ 0.5 μM / Hazard scoring, Color @ 1 μM / Hazard scoring, Color @ 2.5 μM / Hazard scoring, Color @ 5 μM / Hazard scoring, Color @ 0.3 μM / Hazard scoring, Color @ 3 μM / Hazard scoring, Color @ 10 μM / Hazard scoring, Color @ 30 μM: Green: No concern; Yellow: Low concern; Red: High concern; Black: Very high concern due to arrhythmic events
Protocol: Compounds were tested in the 96-well plates.
Compounds were tested at 0.1 μM, 0.2 μM, 0.5 μM, 1 μM, 2.5 μM and 5 μM (n=4 per dose) on Cor.4U®-Cardiomyocytes or on iCell® Cardiomyocytes2.
Alternatively, compounds were tested at 0.1 μM, 0.3 μM; 1 μM, 3 μM, 10 μM and 30 μM (n=4 per dose) mostly on iCell® Cardiomyocytes2.
Vehicle control: Dimethylsulfoxide (DMSO). The solutions of the compound in DMSO or its solvent (final concentration of 0.1% DMSO; n=8).
Tested compounds were dissolved in DMSO at 1000-fold the intended concentrations.
A compound “mother-plate” was made, containing the test compounds and positive and negative controls at 1000-fold the final concentrations. At the experiment day, these stock solutions were diluted with Tyrode (Sigma), supplemented with 10 mM HEPES (Gibco), to 2-fold the intended concentration (in round bottom compound plates). Final DMSO concentration in test solutions and vehicle control was 0.1%.
Second line hSC derived cardiomyocyte called iCell® Cardiomyocytes2 were purchased from FUJIFILM Cellular Dynamics (USA). The experiments with test drugs are carried out 5 to 7 days after plating the cells onto the plate to have a living, beating monolayer of hiPSC-derived cardiomyocytes. The beating monolayer in 96-well-plates are normally taken from 2 Vials of frozen iCell® Cardiomyocytes2 (˜5 million cells/vial), which will be plated onto […] 96-well plates (z50K/well).
At least one hour before the start of the experiments the normal cell medium was replaced with Tyrode solution with Calcium dye (see below).
Cal 520 dye (AAT Bioquest) was dissolved in 11 ml of Tyrode supplemented with 10 mM HEPES and warmed up to 37 C before adding to the cells.
35 μl cell culture medium was removed from each well and replaced with 35 μl of pre-warmed Cal 520 dye solution and cell plate was incubated for 45 min at 37° C./5% CO2. Cells were incubated for 5 min at 37° C.
Spontaneous electrical activity is recorded, using Cal520™ (AAT Bioquest) calcium fluorescence-dye signalling. This dye integrates the total intracellular calcium activity over the whole well. A bottle of Cal520 dye ([…], MW: 1103/mol) is dissolved with 50 μl DMSO as a stock solution of 0.9 mM. 50 μL of the stock solution of the dye was added to 10 ml Tryodes solution to have dye concentration of 4.5 μM. Subsequently, 35 μl of this dye solution was added into each well, to have a final dye concentration of 1.58 μM. The current dye protocol on this CTCM human assay was established recently (Ivan Kopljar et al, Journal of Pharmacological and toxicological methods 2018. 91: 80-86; Lu et al., Tox Sci 2019. 170 (2): 345-356).
Fluorescent signals (Ca^2+ transient morphology) were measured using the Functional Drug Screen System (FDSS/pCell; Hamamatsu, Japan) and the recordings were subsequently analyzed off-line, using appropriate software e.g., Notocord.
The cell plate was loaded into the FDSS/pCell for a test run: Ca^2+ transients were measured for 4 minutes to check for synchronous beating of the cardiomyocytes in each well. All 96 wells were measured simultaneously (sampling interval: 0.06 s, short exposure time: 10 ms; excitation wavelength 480 nm; emission wavelength 540 nm; FDSS/pCell warmed to 37° C.).
During the compound addition step, 100 μl of the respective double-concentrated test solutions was pipetted into each well simultaneously.
Data were analyzed off-line using appropriate software e.g., Notocord-Hem (version 4.3).
The following parameters of the Ca^2+ transient morphology were measured: • beat rate (BR) • amplitude of the Ca^2+ transient (Amp), • CTD90: Ca^2+ transient duration at 90% (time to 90% of the initial base value).
The presence of various ‘arrhythmia-like’ activities were also noted during the experimental periods. […]

[2] = test system: MOLM-13 tumors; assay: Efficacy of combinations in MOLM-13 (KMT2a-r) IV model in NSG mice; format: in vivo; conditions: azacitidine 2 mg/kg ip QD × 7; venetoclax 100 mg/kg po QD × 28; Compound A1 10 mg/kg po QD × 28
Protocol: Each mouse received an injection of 1×10^5 MOLM-13 cells, and all other parameters were conducted as described for experiment (10).

[3] = Mouse PK (in vivo T1/2 and oral bioavailability); design: species or system CD-1 mice; conditions: for In vivo T1/2 (IV): IV 0.5 or 1.0 mg/kg
Protocol: In vivo pharmacokinetics (PK) were assessed in fasted male CD-1 mice (age 6-8 weeks) following a single intravenous (IV, 0.5 or 1.0 mg/kg administered at 2.5 ml/kg) or oral (PO, 5 mg/kg administered at 10 ml solution/kg) dose of test article formulated in a 20% (w:vol) HP-β-CD solution or in Pyrogen free water.
Plasma and/or whole blood samples were collected from the dorsal metatarsal vein at desired timepoints via serial capillary microsampling (approx. 0.03 mL) using EDTA as an anticoagulant. Concentrations of compound in the plasma and blood samples were analyzed using a qualified LC-MS/MS method. In silico analysis of main pharmacokinetic parameters was performed using WinNonlin (Phoenix™, version 6.1) or similar software.)

[4] = test system: OCI-AML3 tumors; assay: Efficacy of combinations in OCI-AML3 (NPM1c) IV model in NSG mice; format: in vivo; conditions: azacitidine 2 mg/kg ip QD × 7; venetoclax 100 mg/kg po QD × 28; Compound A1 30 mg/kg po QD × 28
Protocol: Median survival was determined utilizing Kaplan-Meier survival analysis.

[5] = efficacious dose in mouse xenograft models of 30 mg/kg, (mouse, human)

SMILES | Hazard scoring, Color @ 0.1 μM ([1]; 30 min incubation, Table 12) | Hazard scoring, Color @ 0.3 μM ([1]; 30 min incubation, Table 12) | Hazard scoring, Color @ 1 μM ([1]; 30 min incubation, Table 12) | Hazard scoring, Color @ 3 μM ([1]; 30 min incubation, Table 12) | Hazard scoring, Color @ 10 μM ([1]; 30 min incubation, Table 12) | Hazard scoring, Color @ 30 μM ([1]; 30 min incubation, Table 12) | % ILS [2] | other results
CCN(C(=O)c1cc(F)ccc1Oc1nncnc1N1CCC2(C1)CN([C@H](CCCN(C)CCOC)C(C)C)C2)C(C)C [Compound A1] | Green | Green | Green | Green | Green | yellow | 35* % | Margin CTCM human 10 μM vs free Cmax [1, 5]: > 16; Margin CTCM human 30 μM vs free Cmax [1, 5]: > 45
CCN(C(=O)c1cc(F)ccc1Oc1nncnc1N1CCC2(C1)CN([C@H](CCCN(C)CCOC)C(C)C)C2)C(C)C [Compound A, (R)—N-ethyl-5-fluoro-N-isopropyl-2-((5-(2-(6-((2-methoxyethyl) (methyl)amino)-2-methylhexan-3-yl)-2,6-diazaspiro[3.4]octan-6-yl)-1,2,4-triazin-6-yl)oxy) benzamide] | – | – | – | – | – | – | – | In vivo T1/2 (IV) ([3]; formulating agent HP-β-CD): 6.7 h; Bioavailability (PO) ([3]; PO 5 mg/kg, formulating agent HP-β-CD): 17%
CCN(C(=O)c1cc(F)ccc1Oc1nncnc1N1CCC2(C1)CN([C@H](CCCN(C)CCOC)C(C)C)C2)C(C)C [Compound A3, (R)—N-ethyl-5-fluoro-N-isopropyl-2-((5-(2-(6-((2-methoxyethyl) (methyl)amino)-2-methylhexan-3-yl)-2,6-diazaspiro[3.4]octan-6-yl)-1,2,4-triazin-6-yl)oxy) benzamide oxalate] | – | – | – | – | – | – | – | In vivo T1/2 (IV) ([3]; formulating agent Pyrogen free water): 9.0 h; Hazard scoring, Color @ 0.1 μM ([1]; 30 min incubation, Table 11): Green; Hazard scoring, Color @ 0.2 μM ([1]; 0.2 μM, 30 min incubation, Table 11): Green; Hazard scoring, Color @ 0.5 μM ([1]; 0.5 μM, 30 min incubation, Table 11): Green; Hazard scoring, Color @ 1 μM ([1]; 30 min incubation, Table 11): Green; Hazard scoring, Color @ 2.5 μM ([1]; 2.5 μM, 30 min incubation, Table 11): Green; Hazard scoring, Color @ 5 μM ([1]; 5 μM, 30 min incubation, Table 11): Green
CCN(C(=O)c1cc(F)ccc1Oc1nncnc1N1CCC2(C1)CN([C@H](CCCNCCOC)C(C)C)C2)C(C)C [Compound 11, (R)—N-ethyl-5-fluoro-N-isopropyl-2-((5-(2-(6-((2-methoxyethyl)amino)-2-methylhexan-3-yl)-2,6-diazaspiro[3.4]octan-6-yl)-1,2,4-triazin-6-yl)oxy)benzamide] | Green | Green | Green | Green | Green | Green | – | –
CC1(C)CCC(CN2CCN(c3ccc(C(=O)NS(=O)(=O)c4ccc(NCC5CCOCC5)c([N+](=O)[O-])c4)c(Oc4cnc5[nH]ccc5c4)c3)CC2)=C(c2ccc(Cl)cc2)C1 [Venetoclax, reference compound] | – | – | – | – | – | – | 6% | % ILS [4]: 0 (ns) %
